IC50 and melting point data for 19 compounds are collected here from patent US20050004167A1, “Branched chain amino acid-dependent aminotransferase inhibitors and their use in the treatment of neurodegenerative diseases” (WARNER-LAMBERT COMPANY LLC, priority 2001, published 2005).

Data set [1] concerns the target T1, human Branched Chain Amino Acid Aminotransferase cytosolic form (hBCATc) (Homo sapiens, UniProt P54687).
T1 construct: made in house; host or cells: E. coli BL21(DE3)
T1 sequence (P54687 1-386): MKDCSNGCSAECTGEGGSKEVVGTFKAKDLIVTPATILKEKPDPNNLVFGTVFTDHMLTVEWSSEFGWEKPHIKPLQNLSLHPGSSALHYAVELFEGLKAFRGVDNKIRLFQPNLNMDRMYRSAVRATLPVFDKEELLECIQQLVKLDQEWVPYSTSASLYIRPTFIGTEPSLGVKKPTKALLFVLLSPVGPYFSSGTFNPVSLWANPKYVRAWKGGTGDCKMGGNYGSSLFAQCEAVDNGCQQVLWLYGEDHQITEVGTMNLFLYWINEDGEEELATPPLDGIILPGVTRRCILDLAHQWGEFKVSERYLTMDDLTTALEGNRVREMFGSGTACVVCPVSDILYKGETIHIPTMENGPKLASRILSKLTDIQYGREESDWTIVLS
Briefly: In vitro coupled enzyme assay (glutamate dehydrogenase, NADH formation), human BCATc. The format is biochemical. The following applies: recombinant human BCATc, 37° C., 25 mM phosphate buffer pH 7.8; several values in a cell = repeat determinations; read-out: RhBCATc. In outline:
(§1)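 At 37 °C in 25 mM phosphate pH 7.8 with 2 mM DTT, 1.25 μg His-tag-purified E. coli-expressed BCAT transaminated 750 μM L-leucine with 500 μM α-ketoglutarate and 10 μM PLP. Glutamate was coupled via glutamate dehydrogenase (1 mM NAD+, 4 mM ADP) to NADH formation at 340 nm. Compounds were added in DMSO up to 5% v/v.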

In another data set the target is T2, rat BCAT cytosolic form (Rattus norvegicus, UniProt P54690).
T2 construct: made in house; host or cells: E. coli BL21(DE3)
T2 sequence (P54690 1-411): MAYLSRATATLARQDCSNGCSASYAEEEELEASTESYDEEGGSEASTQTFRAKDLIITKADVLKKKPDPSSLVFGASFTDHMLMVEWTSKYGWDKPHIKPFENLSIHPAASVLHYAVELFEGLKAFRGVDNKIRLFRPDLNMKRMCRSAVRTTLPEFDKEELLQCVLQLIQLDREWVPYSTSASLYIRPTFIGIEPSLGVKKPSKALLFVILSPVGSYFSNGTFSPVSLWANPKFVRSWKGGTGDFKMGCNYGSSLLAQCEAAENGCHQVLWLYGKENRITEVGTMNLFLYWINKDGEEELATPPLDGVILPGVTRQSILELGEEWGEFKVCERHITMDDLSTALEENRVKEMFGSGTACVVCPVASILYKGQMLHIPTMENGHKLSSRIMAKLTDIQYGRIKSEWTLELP
Briefly: In vitro coupled enzyme assay (glutamate dehydrogenase, NADH formation), rat BCATc. The format is biochemical. The note with it: recombinant rat BCATc, 37° C., 25 mM phosphate buffer pH 7.8; several values in a cell = repeat determinations; read-out: RrBCATc. An outline of the steps:
as §1

Where “and” joins values, the source holds several entries; their conditions need not be identical. Equal entries are not always repeated. Where only a bound is given, the exact number is not on record here.

A word on the melting point: it is the temperature of the solid-liquid transition.

In turn, `O=C(NNS(=O)(=O)c1cccc(Br)c1)c1cc2cc(Cl)ccc2o1` [Example 45, 2-Benzofurancarboxylic acid, 5-chloro-2-[(3-bromophenyl)sulfonyl]hydrazide] came in with a melting point of 218.1 to 220 °C. Further, the IC50 in data set [1] was determined as 2.29 µM. In addition, the IC50 on rat BCAT cytosolic form came to 210 nM.

`Cc1cccc(S(=O)(=O)NNC(=O)c2cc3cc(Cl)ccc3o2)c1` [Example 47, 2-Benzofurancarboxylic acid, 5-chloro-2-[(3-methylphenyl)sulfonyl]hydrazide] displayed a melting point of 201.2 to 201.6 °C. Also, in data set [1], the IC50 was 0.84 µM and 1.47 µM. In addition, on rat BCAT cytosolic form, the IC50 was 150 nM and 200 nM.

In the case of `COc1cccc(S(=O)(=O)NNC(=O)c2cc3cc(Cl)ccc3o2)c1` [Example 48, 2-Benzofurancarboxylic acid, 5-chloro-2-[(3-methoxyphenyl)sulfonyl]hydrazide], the melting point was in the range of 204.3 to 204.6 °C. Also, the IC50 in data set [1] is 4.21 µM and 7.6 µM. Besides, the IC50 on rat BCAT cytosolic form turned out to be 910 nM.

`Cc1c(Cl)cccc1S(=O)(=O)NNC(=O)c1cc2cc(Cl)ccc2o1` [Example 49, 2-Benzofurancarboxylic acid, 5-chloro-2-[(3-chloro-2-methylphenyl)sulfonyl]-hydrazide] came in with a melting point of 198.2 to 198.5 °C. For the same compound, in data set [1], the IC50 is 1.75 µM and 3.6 µM. Also, on rat BCAT cytosolic form, the IC50 was 3100 nM and 4000 nM.

As to `Cc1ccc(F)cc1S(=O)(=O)NNC(=O)c1cc2cc(Cl)ccc2o1` [Example 50, 2-Benzofurancarboxylic acid, 5-chloro-2-[(5-fluoro-2-methylphenyl)sulfonyl]-hydrazide], the melting point lay within 209.6 to 211.2 °C. Moreover, the IC50 in data set [1] was 5.18 µM and 9.1 µM. Moreover, on rat BCAT cytosolic form, the IC50 is 1300 nM.

For `O=C(NNS(=O)(=O)c1ccccc1OC(F)(F)F)c1cc2cc(Cl)ccc2o1` [Example 52, 2-Benzofurancarboxylic acid, 5-chloro-2-[[2-(trifluoromethoxy)phenyl]sulfonyl]-hydrazide], the melting point is 218.2 to 219.8 °C. Moreover, in data set [1], the IC50 amounted to 2.19 µM. Moreover, on rat BCAT cytosolic form, the IC50 worked out at 300 nM.

`COc1ccc2oc(C(=O)NNS(=O)(=O)c3ccccc3)c(OC)c2c1` [Example 58, 2-Benzofurancarboxylic acid, 3,5-dimethoxy-, 2-(phenylsulfonyl)hydrazide] yielded a melting point of 172.2 to 173.8 °C. Moreover, the IC50 in data set [1] turned out to be 3.57 µM. For the same compound, the IC50 at rat BCAT cytosolic form came out at 220 nM.

Consider `COc1ccc2c(OC)c(C(=O)NNS(=O)(=O)c3ccccc3)oc2c1` [Example 59, 2-Benzofurancarboxylic acid, 3,6-dimethoxy-, 2-(phenylsulfonyl)hydrazide], for which the melting point lay within 174.8 to 175.2 °C. Also, the IC50 in data set [1] was 3.42 µM. The IC50 at rat BCAT cytosolic form turned out to be 120 nM.

On to `CCOc1c(C(=O)NNS(=O)(=O)c2ccccc2)oc2ccc(-c3ccccc3)cc12` [Example 66, 2-Benzofurancarboxylic acid, 3-ethoxy-5-phenyl-, 2-(phenylsulfonyl)hydrazide], for which the melting point lay within 184.3 to 184.6 °C. Also, the IC50 in data set [1] is 1.38 µM. Moreover, the IC50 on rat BCAT cytosolic form was determined as 150 nM.

With `O=C(NNS(=O)(=O)c1ccccc1)c1cc2cc(Cl)cc(Cl)c2o1` [Example 69, 2-Benzofurancarboxylic acid, 5,7-dichloro 2-(phenylsulfonyl)sulfonyl hydrazide], the melting point fell in the range of 216.4 to 218.1 °C. For the same compound, the IC50 in data set [1] was 3.86 µM. For the same compound, the IC50 at rat BCAT cytosolic form stood at 50 nM.

Compound `O=C(NNS(=O)(=O)c1ccccc1C(F)(F)F)c1cc2cc(Cl)cc(Cl)c2o1` [Example 70] came in with a melting point of 245.6 to 247.6 °C. The IC50 in data set [1] turned out to be 11.6 µM. Also, on rat BCAT cytosolic form, the IC50 turned out to be 430 nM.

Regarding `Cc1ccccc1S(=O)(=O)NNC(=O)c1cc2cc(Cl)cc(Cl)c2o1` [Example 71, 2-Benzofurancarboxylic acid, 5,7-dichloro 2-[(2-methylphenyl)sulfonyl]hydrazide], the melting point was in the range of 212 to 214 °C. The IC50 in data set [1] is 6.57 µM. Also, the IC50 at rat BCAT cytosolic form is 880 nM.

`Cc1cccc(S(=O)(=O)NNC(=O)c2cc3cc(Cl)cc(Cl)c3o2)c1` [Example 72, 2-Benzofurancarboxylic acid, 5,7-dichloro 2-[(3-methylphenyl)sulfonyl]-hydrazide] came in with a melting point of 230.4 to 231.1 °C. In addition, the IC50 in data set [1] is > 10 µM and 5.35 µM. Besides, on rat BCAT cytosolic form, the IC50 turned out to be 1860 nM.

`O=C(NNS(=O)(=O)c1cccc(Br)c1)c1cc2cc(Cl)cc(Cl)c2o1` [Example 74, 2-Benzofurancarboxylic acid, 5,7-dichloro 2-[(3-bromophenyl)sulfonyl]-hydrazide] came in with a melting point of 248.5 to 248.8 °C. Besides, the IC50 in data set [1] was found to be 64.5 µM. In addition, at rat BCAT cytosolic form, the IC50 was found to be 3710 nM.

For `O=C(NNS(=O)(=O)c1cccc(Cl)c1)c1cc2cc(Cl)cc(Cl)c2o1` [Example 75, 2-Benzofurancarboxylic acid, 5,7-dichloro 2-[(3-chlorophenyl)sulfonyl]-hydrazide], the melting point fell in the range of 245.6 to 245.7 °C. Further, the IC50 in data set [1] was > 10 µM and 5.4 µM. Also, the IC50 at rat BCAT cytosolic form is 880 nM.

`O=C(NNS(=O)(=O)c1ccccc1OC(F)(F)F)c1cc2cc(Cl)cc(Cl)c2o1` [Example 76, 2-Benzofurancarboxylic acid, 5,7-dichloro 2-[[2-(trifluoromethoxy)phenyl]-sulfonyl]hydrazide] came in with a melting point of 234.5 to 236.1 °C. In data set [1], the IC50 was determined as 11.2 µM. Moreover, the IC50 on rat BCAT cytosolic form is 1510 nM.

`O=C(NNS(=O)(=O)c1ccccc1C(F)(F)F)c1cnc2ccccc2c1` [Example 135, 3-Quinolinecarboxylic acid, 2-[(2-trifluoromethylphenyl)sulfonyl]hydrazide] yielded a melting point of 203.6 to 204.4 °C. Further, the IC50 in data set [1] was found to be 13 µM. The IC50 on rat BCAT cytosolic form is 2800 nM.

Regarding `O=C(NNS(=O)(=O)c1ccccc1OC(F)(F)F)c1cnc2ccccc2c1` [Example 137, 3-Quinolinecarboxylic acid, 2-[(2-trifluoromethoxyphenyl)sulfonyl]hydrazide], the melting point was 175.1 to 175.9 °C. In addition, in data set [1], the IC50 amounted to 41 µM. Moreover, the IC50 at rat BCAT cytosolic form was determined as 14000 nM.

On to `O=C(NNS(=O)(=O)c1ccccc1)c1ccc2c(c1)CCO2` [Example 149, 2,3-Dihydro-benzofuran-5-carboxylic acid 2-(phenylsulfonyl)hydrazide], for which the melting point was 181 to 183 °C. Moreover, the IC50 in data set [1] was found to be 17.9 µM. The IC50 on rat BCAT cytosolic form amounted to 3300 nM.
